In patent US20240238300A1, “TREATMENT METHODS FOR SUBJECTS WITH CANCER HAVING AN ABERRATION IN EGFR AND/OR HER2” (TAIHO PHARMACEUTICAL CO., LTD., priority 2021, published 2024):

Key:
[1] = pharmacokinetics after single oral administration; type: in vivo, male nude mice; settings: plasma; for AUC(0-t): male, nude, mouse, read-out: AUC0-24
Protocol: (§1) Compound (1) was orally administered. The concentrations of Compound (1) were quantified using LC-MS/MS for the PK studies. ^13C-labeled Compound (1) was used as an internal standard.
Pharmacokinetics in nude mice after single oral administration. Plasma concentration profiles and PK parameters of Compound (1) were determined in male nude mice following a single oral administration at doses of 6.25, 12.5, and 25 mg/kg (FIGS. 4A and 4B, and Table 4). The Cmax, AUClast, and AUC0-24 values increased in a dose dependent manner.

[2] = pharmacokinetics after multiple oral administration for 7 days; type: in vivo, male nude mice; settings: for AUC(0-t): male, nude, mouse, plasma, read-out: AUC0-24
Protocol: as §1
Pharmacokinetics in nude mice after multiple oral administration for 7 days. Plasma concentration profiles and PK parameters of Compound (1) on Day 7 were determined in male nude mice after once daily oral administrations for 7 days at doses of 6.25, 12.5, and 25 mg/kg (FIGS. 5A and 5B, and Table 5). The Cmax, AUClast, and AUC0-24 values increased in a dose-dependent manner.

HER2 A775_G776insYVMA = HER2 A775_G776insYVMA (Homo sapiens, UniProt P04626, INS775YVMA); test: in vitro kinase assay (enzyme assay); type: biochemical; settings: human recombinant enzyme; read-out: IC50 (Mean ± SD)
Protocol: (§2) To investigate the inhibitory effect of Compound (1) on HER2 enzyme activity, the mean±standard deviation (SD) of half-maximal inhibitory concentration (IC50) values of Compound (1) against human recombinant enzymes of HER2 and its mutants were determined by in vitro kinase assays (Table 1).

HER2 = HER2 (Homo sapiens, UniProt P04626); test: in vitro kinase assay (enzyme assay); type: biochemical; settings: human recombinant enzyme; read-out: IC50 (Mean ± SD)
Protocol: as §2

HER2 V777L = HER2 V777L (Homo sapiens, UniProt P04626, V777L); test: in vitro kinase assay (enzyme assay); type: biochemical; settings: human recombinant enzyme; read-out: IC50 (Mean ± SD)
Protocol: as §2

[3] = system: intracranial NCI-N87-luc human gastric carcinoma xenografts; test: intracranial antitumor effect with various dosing schedules, NCI-N87-luc xenografts; type: in vivo, nude mice; settings: Day 22; for T/C ratio of the mean total flux: 21 days
Protocol: The intracranial antitumor effect of Compound (1) with various dosing schedules ((i) QD, (ii) intermittent, and (iii) 4 days-on/3 days-off) was evaluated using Compound (1) in nude mice intracranially implanted with NCI-N87-luc cells, which were engineered to stably express the luciferase gene using the HER2-overexpressing NCI-N87 human gastric carcinoma cell line.
Compound (1) dosing suspensions using 0.5% weight per volume (w/v) hydroxypropyl methylcellulose (HPMC) as vehicle were prepared with Compound (1) at 2 dose levels (25.0 or 50.0 mg/kg/day) and orally administered with various dosing schedules ((i) QD, (ii) intermittent, and (iii) 4 days-on/3 days-off) for 21 days. The (i) QD dosing schedule in this example was dosing every day on day 1 to day 21. The (ii) intermittent dosing schedule in this example used sequential 7-day periods that each comprise alternating 4 days-on and 3 days-off. That is, this schedule involved dosing on days 1, 3, 5, 7, 8, 10, 12, 14, 15, 17, 19, and 21. The (iii) 4 days-on/3 days-off dosing schedule was dosing on days 1, 2, 3, 4, 8, 9, 10, 11, 15, 16, 17, and 18. The control group received 0.5% w/v HPMC solution orally once daily for 21 days.

[4] = system: NCI-N87 tumor fragment #6, clone 3; test: refractory T-DM1 monoclonal cell line model, comparison to DS-8201a; type: in vivo, male mice; settings: for antitumor effect (tumor volume): 21 days
Protocol: The obtained cell line was implanted into BALB/cAJcl-mu/nu male mice (8.0×10^6 cells in 100 μL of PBS/mouse, subcutaneous) for the efficacy test.
The tumor volumes (TV, mm) and body weights of the mice were recorded.

[5] = system: MDA-MB-175VII cells (DOC4-NRG1 fusion); test: growth inhibitory effect in NRG1 fusion-driven cancer cell line (GI50); type: cell-based; settings: Homo sapiens, mean of 3-4 independent experiments
Protocol: GI50 values were also determined for currently approved EGFR/HER2 tyrosine kinase inhibitors: afatinib, osimertinib, tucatinib, lapatinib, and neratinib, and one investigational drug (poziotinib). Mean values were determined from 3-4 independent experiments.

[6] = Day 7, once daily oral 6.25 mg/kg for 7 days
[7] = Day 7, once daily oral 12.5 mg/kg for 7 days
[8] = Day 7, once daily oral 25 mg/kg for 7 days
[9] = (ii) intermittent 50.0 mg/kg/day
[10] = (iii) 4 days-on/3 days-off 50.0 mg/kg/day

Chain of HER2 V777L (P04626 23-1255 V777L): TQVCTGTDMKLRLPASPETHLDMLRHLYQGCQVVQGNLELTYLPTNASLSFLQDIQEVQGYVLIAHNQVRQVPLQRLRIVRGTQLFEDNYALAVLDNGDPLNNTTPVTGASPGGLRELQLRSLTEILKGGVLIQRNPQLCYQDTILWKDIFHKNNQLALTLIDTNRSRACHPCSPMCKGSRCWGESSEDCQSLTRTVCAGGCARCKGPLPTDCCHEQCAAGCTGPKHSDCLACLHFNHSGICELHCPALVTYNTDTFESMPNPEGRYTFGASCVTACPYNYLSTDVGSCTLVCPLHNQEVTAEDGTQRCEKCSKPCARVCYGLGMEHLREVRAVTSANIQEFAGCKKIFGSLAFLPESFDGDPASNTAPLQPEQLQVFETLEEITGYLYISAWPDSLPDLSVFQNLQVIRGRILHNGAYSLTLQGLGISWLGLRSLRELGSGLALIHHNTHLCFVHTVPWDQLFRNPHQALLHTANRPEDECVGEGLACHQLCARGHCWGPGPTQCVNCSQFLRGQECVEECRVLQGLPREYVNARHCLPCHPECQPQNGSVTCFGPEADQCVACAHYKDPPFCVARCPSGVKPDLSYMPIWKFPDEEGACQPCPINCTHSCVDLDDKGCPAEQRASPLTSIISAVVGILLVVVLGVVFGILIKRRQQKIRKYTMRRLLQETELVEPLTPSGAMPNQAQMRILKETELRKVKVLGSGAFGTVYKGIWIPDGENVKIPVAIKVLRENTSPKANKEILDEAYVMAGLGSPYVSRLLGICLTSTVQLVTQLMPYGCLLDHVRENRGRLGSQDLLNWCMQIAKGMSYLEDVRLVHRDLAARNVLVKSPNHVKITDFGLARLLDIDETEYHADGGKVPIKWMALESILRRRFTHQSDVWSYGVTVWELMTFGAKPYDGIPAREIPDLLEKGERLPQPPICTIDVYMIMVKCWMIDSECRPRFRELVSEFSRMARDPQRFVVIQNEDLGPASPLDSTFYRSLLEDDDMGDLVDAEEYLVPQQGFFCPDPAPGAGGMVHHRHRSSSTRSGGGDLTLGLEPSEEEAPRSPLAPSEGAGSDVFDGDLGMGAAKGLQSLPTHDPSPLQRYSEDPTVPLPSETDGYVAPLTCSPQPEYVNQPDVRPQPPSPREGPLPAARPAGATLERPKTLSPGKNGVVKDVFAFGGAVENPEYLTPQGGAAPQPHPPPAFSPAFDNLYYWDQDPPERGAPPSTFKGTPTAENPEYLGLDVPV
Chain of HER2 (P04626 23-1255): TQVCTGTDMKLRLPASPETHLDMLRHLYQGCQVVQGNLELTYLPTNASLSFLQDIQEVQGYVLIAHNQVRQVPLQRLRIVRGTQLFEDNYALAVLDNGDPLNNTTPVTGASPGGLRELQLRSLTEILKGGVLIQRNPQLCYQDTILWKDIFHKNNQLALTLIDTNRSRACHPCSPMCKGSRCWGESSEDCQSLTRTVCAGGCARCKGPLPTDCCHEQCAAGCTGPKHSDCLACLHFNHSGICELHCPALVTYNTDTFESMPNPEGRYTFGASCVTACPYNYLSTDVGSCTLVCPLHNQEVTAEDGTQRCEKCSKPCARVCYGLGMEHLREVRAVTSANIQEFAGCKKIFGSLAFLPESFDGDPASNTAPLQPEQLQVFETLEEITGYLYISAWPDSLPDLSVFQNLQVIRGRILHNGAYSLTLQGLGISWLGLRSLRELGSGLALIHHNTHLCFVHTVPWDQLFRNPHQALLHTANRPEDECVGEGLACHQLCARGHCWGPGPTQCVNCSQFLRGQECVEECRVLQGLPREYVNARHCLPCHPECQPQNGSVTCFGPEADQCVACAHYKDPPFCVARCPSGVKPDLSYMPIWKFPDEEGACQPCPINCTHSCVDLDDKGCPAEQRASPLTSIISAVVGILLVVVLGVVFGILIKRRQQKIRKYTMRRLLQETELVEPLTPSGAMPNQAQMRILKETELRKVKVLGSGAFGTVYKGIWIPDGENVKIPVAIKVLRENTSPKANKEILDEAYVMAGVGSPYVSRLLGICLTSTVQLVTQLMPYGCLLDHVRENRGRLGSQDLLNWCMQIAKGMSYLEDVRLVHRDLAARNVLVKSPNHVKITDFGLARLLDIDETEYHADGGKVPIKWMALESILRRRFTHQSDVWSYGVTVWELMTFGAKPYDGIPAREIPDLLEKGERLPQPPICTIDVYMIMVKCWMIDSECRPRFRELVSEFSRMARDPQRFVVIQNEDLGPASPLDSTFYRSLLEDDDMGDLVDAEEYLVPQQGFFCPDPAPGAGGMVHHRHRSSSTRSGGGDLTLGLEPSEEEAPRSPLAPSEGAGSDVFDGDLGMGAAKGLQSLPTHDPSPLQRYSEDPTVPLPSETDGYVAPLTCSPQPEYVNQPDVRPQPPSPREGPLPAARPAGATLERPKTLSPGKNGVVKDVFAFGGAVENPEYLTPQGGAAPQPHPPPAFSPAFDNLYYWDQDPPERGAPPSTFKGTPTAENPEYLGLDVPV
Chain of HER2 A775_G776insYVMA (P04626 with tags, fused parts or gaps INS775YVMA limits assumed): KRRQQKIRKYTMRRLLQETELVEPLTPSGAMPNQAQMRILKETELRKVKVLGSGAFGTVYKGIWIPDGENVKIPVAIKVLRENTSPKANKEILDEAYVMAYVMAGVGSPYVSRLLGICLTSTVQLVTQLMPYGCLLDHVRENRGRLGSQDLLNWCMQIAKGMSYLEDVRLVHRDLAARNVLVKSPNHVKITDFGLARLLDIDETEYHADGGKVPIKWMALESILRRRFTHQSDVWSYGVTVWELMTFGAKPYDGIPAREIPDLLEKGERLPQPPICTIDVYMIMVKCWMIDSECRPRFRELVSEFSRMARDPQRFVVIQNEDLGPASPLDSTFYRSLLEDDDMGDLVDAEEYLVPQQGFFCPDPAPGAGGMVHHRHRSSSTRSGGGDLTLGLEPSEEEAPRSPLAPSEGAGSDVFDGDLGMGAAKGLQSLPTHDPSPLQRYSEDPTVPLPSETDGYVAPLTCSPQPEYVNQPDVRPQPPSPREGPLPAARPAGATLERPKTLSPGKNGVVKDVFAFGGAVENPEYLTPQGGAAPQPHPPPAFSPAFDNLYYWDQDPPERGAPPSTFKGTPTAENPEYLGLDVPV

SMILES: C=CC(=O)N1C[C@H](n2c(C#CC3CC3)c(C(=O)N[C@H](C)c3ccccc3)c3c(N)ncnc32)C[C@@H]1C [Compound (1), 7-((3R,5S)-1-acryloyl-5-methylpyrrolidin-3-yl)-4-amino-6-(cyclopropylethynyl)-N—((R)-1-phenylethyl)-7H-pyrrolo[2,3-d]pyrimidine-5-carboxamide]
- AUC(0-t) ([1]; single oral 6.25 mg/kg): 822 ± 208 ng·h/mL
- AUC(0-t) ([1]; single oral 25 mg/kg): 5230 ± 620 ng·h/mL
- AUClast ([1]; single oral 6.25 mg/kg): 795 ± 229 ng·h/mL
- Cmax ([1]; single oral 6.25 mg/kg): 601 ± 111 ng/mL
- Tmax ([1]; single oral 6.25 mg/kg): 19.8 ± 8.4 min
- AUC0-24 ([1]; single oral 12.5 mg/kg): 2010 ± 230 ng·h/mL
- AUClast ([1]; single oral 12.5 mg/kg): 2010 ± 230 ng·h/mL
- Cmax ([1]; single oral 12.5 mg/kg): 1590 ± 220 ng/mL
- Tmax ([1]; single oral 12.5 mg/kg): 15 ± 0 min
- AUClast ([1]; single oral 25 mg/kg): 5080 ± 820 ng·h/mL
- Cmax ([1]; single oral 25 mg/kg): 3580 ± 190 ng/mL
- Tmax ([1]; single oral 25 mg/kg): 15 ± 0 min
- AUClast [2, 6]: 972 ± 239 ng·h/mL
- Cmax [2, 6]: 1170 ± 300 ng/mL
- Tmax [2, 6]: 15 ± 0 min
- AUC0-24 [2, 7]: 2830 ± 400 ng·h/mL
- AUClast [2, 7]: 2800 ± 460 ng·h/mL
- Cmax [2, 7]: 2040 ± 230 ng/mL
- Tmax [2, 7]: 19.8 ± 8.4 min
- AUClast [2, 8]: 6180 ± 310 ng·h/mL
- Cmax [2, 8]: 3710 ± 360 ng/mL
- Tmax [2, 8]: 25.2 ± 8.4 min
- AUC(0-t) [2, 6]: 1030 ± 280 ng·h/mL
- AUC(0-t) [2, 8]: 6400 ± 430 ng·h/mL
- IC50 (HER2 A775_G776insYVMA): 1 ± 0.2 nM
- IC50 (HER2): 5.6 ± 0.3 nM
- IC50 (HER2 V777L): 2.1 ± 0.8 nM
- T/C ratio of the mean total flux [3, 9]: 3.8%
- mean body weight change [3, 9]: −1.0%
- T/C ratio of the mean total flux [3, 10]: 8.9%
- mean body weight change [3, 10]: 0.3%
- antitumor effect (tumor volume) ([4]; 12.5 mg/kg/day PO once per day): arresting tumor growth
- antitumor effect (tumor volume) ([4]; 20 mg/kg/day PO once per day): inducing tumor regression
- body weight loss ([4]; 12.5 or 20 mg/kg): did not cause body weight loss
- GI50 [5]: 1.2 ± 0.3 nM
